The record followed here is patent US9969771B2, “Tetrapeptide having effect of inhibiting VEGF-induced angiogenesis and use thereof” (AVIXGEN INC., priority 2015, dated 2018).

In assay [1] the test system is aortic ring. As to the kind of experiment: Aortic ring sprouting assay (ex vivo). The arrangement: species or system Sprague-Dawley rat. Particulars: RLYE 0.3 nM, VEGF 20 ng/ml. As for the experimental part:
An aortic ring sprouting assay was performed by a method modified based on previous research. A 1-mm-thick aortic ring prepared from a Sprague-Dawley rat (7-week-old male) was placed in a 96-well plate coated with 120 μl of Matrigel, sealed with 50 μl of Matrigel, and incubated with RLYE (SEQ ID NO: 2) (0.3 nM) or VEGF (20 ng/ml) in a total of 200 μl of a serum-free medium. Blood vessels newly formed at day 6 were fixed, microvascular formation was observed under a phase-contrast microscope, and angiogenesis was quantified with Image Jsoftware available at NIH website, rsb.info.nih.gov/ij.

The test system of assay [2] is HUVECs. As to the kind of experiment: HUVEC tube formation on Matrigel. It is filed as cell-based, human. The protocol: Tube formation of HUVECs was examined using growth factor-reduced Matrigel (hereinafter, referred to as “Matrigel”). 250 μl of Matrigel (10 mg protein/ml) was placed in a 24-well plate to allow polymerization for 30 minutes at 37° C. […] The tube formation was examined under a reverse phase-contrast microscope, and visualized with Image-Pro Plus version 4.5 (Media Cybernetics, San Diego, Calif.). Five samples were randomly selected to measure and quantify a length of the tube formed above.

Assay [3] concerns p38. Put plainly: Western blot, p38 activation in VEGF-A-stimulated HUVECs. It counts as cell-based, human. Particulars: HUVECs stimulated with VEGF-A. As for the experimental part:
(§1) Cells were lyzed in RIPA buffer, and 50 μg of proteins were isolated by SDS-PAGE and then transferred to a PVDF membrane. The membrane was reacted with an antibody with respect to a target protein for 2 hours. The membrane was washed twice and reacted with a horseradish peroxidase-conjugated antibody, and then an amount of the target proteins was assessed with an enhanced chemiluminescence system.

Assay [4] concerns HUVECs. As to the kind of experiment: HUVEC migration, transwell (Boyden chamber) assay. It counts as cell-based, human. As for the experimental part: HUVEC migration was analyzed using a transwell plate equipped with a 6.5-mm-diameter polycarbonate filter (8-μm pore size). A lower surface of the filter was coated with 10 μg of gelatin. […] Following incubation with various concentrations of tetrapeptides at room temperature for 30 minutes, HUVECs (1×10^6 cells/100 μl) were placed in upper wells. The cells were incubated at 37° C. in a constant temperature and humidity chamber for 4 hours. The migrated cells were stained with hematoxylin and eosin, and quantified under an optical microscope.

Assay [5] deals with ERK. Put plainly: Western blot, ERK phosphorylation in HUVECs. It counts as cell-based, human. As for the experimental part: as §1
For orientation: A western blot detects proteins with antibodies after separation by electrophoresis.

The structures appear in SMILES notation. “Also recorded” adds a separate entry of the source. Where a SMILES comes first, the peptide text is derived from it.

Regarding `CC(C)C[C@H](NC(=O)[C@@H](N)CCCNC(=N)N)C(=O)N[C@@H](Cc1ccc(O)cc1)C(=O)N[C@@H](CCC(=O)O)C(=O)O` [RLYE] (H-RLYE-OH; N-terminus and C-terminus assumed), in assay [1], the “VEGF-A-induced angiogenesis at the edge of the aortic ring” value was “significantly inhibited”. Moreover, the “inhibition of VEGF-induced tube formation” value in assay [2] (HUVECs, peptide 0.15 nM, VEGF 10 ng/ml) is “effectively regulated; also recorded: much higher inhibitory effect on the tube formation than KLYD; also recorded: effectively inhibited”. Besides, in assay [2] (bFGF stimulated), the “bFGF-induced tube formation of HUVECs” value is “did not inhibit”. Also, the “activation of p38” value in assay [3] was “inhibited”. Besides, the “EGF-induced migration of HUVECs” value in assay [4] (EGF stimulated) was “does not affect”. Besides, the “P1GF-induced HUVEC migration” value in assay [4] (P1GF (ligand of VEGFR-1)) is listed as “does not inhibit”. The “inhibition of VEGF-induced HUVEC migration” value in assay [4] (VEGF / VEGF-A stimulated) is on record as “effectively inhibited; also recorded: certainly inhibits; also recorded: concentration-dependently inhibited”. In addition, the “VEGF-B-induced HUVEC migration” value in assay [4] (VEGF-B (ligand of VEGFR-1)) is “does not inhibit”. Besides, the “bFGF-induced migration of HUVECs” value in assay [4] (bFGF stimulated) is on record as “did not inhibit”. Further, the “P1GF-induced ERK phosphorylation” value in assay [5] (P1GF (ligand of VEGFR-1)) is on record as “did not inhibit”. Moreover, the “inhibition of VEGF-induced ERK phosphorylation” value in assay [5] (VEGF / VEGF-A stimulated) is recorded as “inhibited; also recorded: more effectively inhibited; also recorded: highest inhibitory effect”. In assay [5] (VEGF-B (ligand of VEGFR-1)), the “VEGF-B-induced ERK phosphorylation” value is given as “did not inhibit”.
